From patent US7531320B2, “Modulation of β-catenin/TCF-activated transcription” (priority 2003, dated 2009)

Target: T1, CBP (Homo sapiens, UniProt Q92793)
T1 construct: endogenous in cells; host or cells: SW480 nuclear extract
Experiment: COMPOUND 2 streptavidin-agarose affinity pull-down from SW480 nuclear extracts
Type: binding
Details: SW480 nuclear extracts, 20 μM preincubation
Method: FIG. 1. COMPOUND 1 inhibits β-catenin/TCF transcription. • A(i) and A(ii). Structures of COMPOUND 1, COMPOUND 2, COMPOUND 3, COMPOUND 4, and COMPOUND 5. • B(i) and B(ii). […] SW480 cells (10^5), (FIG. 1B(i)), were transfected with β-catenin/TCF luciferase construct. Cells were treated with COMPOUND 1 (1-64 μM). 24 hours post treatment lysates were prepared and subjected to dual luciferase assay. The data is represented in different form in FIG. 1B(ii). • C. COMPOUND 1 has no effect on NFAT reporter construct. Stably transfected Jurkat cells, right panel, with an NFAT reporter construct, were stimulated with PMA (10 ng/ml)/lonomycin (1 μg/ml), and treated with COMPOUND 1 (0.781-50 μM). 24 hours post treatment lysates were prepared and subjected to dual luciferase assay. All experiments were performed in duplicate and the values plotted as means +/−standard deviation. • D. CBP is the molecular target of COMPOUND 1. Nuclear extracts of SW480 cells were incubated with streptavidin-agarose beads coated with COMPOUND 2 (25 μM). Beads were washed 3 times and the eluted were subjected to gel electrophoresis and immunoblotting, with anti-CBP antibodies. […] The lysates were desalted using G-25 1 cc columns (Pharmacia) to remove the unbound ^14C-labeled-COMPOUND 1, and ^14C-labeled-COMPOUND 1 incorporation was measured. […]

T1 sequence (Q92793 whole entry): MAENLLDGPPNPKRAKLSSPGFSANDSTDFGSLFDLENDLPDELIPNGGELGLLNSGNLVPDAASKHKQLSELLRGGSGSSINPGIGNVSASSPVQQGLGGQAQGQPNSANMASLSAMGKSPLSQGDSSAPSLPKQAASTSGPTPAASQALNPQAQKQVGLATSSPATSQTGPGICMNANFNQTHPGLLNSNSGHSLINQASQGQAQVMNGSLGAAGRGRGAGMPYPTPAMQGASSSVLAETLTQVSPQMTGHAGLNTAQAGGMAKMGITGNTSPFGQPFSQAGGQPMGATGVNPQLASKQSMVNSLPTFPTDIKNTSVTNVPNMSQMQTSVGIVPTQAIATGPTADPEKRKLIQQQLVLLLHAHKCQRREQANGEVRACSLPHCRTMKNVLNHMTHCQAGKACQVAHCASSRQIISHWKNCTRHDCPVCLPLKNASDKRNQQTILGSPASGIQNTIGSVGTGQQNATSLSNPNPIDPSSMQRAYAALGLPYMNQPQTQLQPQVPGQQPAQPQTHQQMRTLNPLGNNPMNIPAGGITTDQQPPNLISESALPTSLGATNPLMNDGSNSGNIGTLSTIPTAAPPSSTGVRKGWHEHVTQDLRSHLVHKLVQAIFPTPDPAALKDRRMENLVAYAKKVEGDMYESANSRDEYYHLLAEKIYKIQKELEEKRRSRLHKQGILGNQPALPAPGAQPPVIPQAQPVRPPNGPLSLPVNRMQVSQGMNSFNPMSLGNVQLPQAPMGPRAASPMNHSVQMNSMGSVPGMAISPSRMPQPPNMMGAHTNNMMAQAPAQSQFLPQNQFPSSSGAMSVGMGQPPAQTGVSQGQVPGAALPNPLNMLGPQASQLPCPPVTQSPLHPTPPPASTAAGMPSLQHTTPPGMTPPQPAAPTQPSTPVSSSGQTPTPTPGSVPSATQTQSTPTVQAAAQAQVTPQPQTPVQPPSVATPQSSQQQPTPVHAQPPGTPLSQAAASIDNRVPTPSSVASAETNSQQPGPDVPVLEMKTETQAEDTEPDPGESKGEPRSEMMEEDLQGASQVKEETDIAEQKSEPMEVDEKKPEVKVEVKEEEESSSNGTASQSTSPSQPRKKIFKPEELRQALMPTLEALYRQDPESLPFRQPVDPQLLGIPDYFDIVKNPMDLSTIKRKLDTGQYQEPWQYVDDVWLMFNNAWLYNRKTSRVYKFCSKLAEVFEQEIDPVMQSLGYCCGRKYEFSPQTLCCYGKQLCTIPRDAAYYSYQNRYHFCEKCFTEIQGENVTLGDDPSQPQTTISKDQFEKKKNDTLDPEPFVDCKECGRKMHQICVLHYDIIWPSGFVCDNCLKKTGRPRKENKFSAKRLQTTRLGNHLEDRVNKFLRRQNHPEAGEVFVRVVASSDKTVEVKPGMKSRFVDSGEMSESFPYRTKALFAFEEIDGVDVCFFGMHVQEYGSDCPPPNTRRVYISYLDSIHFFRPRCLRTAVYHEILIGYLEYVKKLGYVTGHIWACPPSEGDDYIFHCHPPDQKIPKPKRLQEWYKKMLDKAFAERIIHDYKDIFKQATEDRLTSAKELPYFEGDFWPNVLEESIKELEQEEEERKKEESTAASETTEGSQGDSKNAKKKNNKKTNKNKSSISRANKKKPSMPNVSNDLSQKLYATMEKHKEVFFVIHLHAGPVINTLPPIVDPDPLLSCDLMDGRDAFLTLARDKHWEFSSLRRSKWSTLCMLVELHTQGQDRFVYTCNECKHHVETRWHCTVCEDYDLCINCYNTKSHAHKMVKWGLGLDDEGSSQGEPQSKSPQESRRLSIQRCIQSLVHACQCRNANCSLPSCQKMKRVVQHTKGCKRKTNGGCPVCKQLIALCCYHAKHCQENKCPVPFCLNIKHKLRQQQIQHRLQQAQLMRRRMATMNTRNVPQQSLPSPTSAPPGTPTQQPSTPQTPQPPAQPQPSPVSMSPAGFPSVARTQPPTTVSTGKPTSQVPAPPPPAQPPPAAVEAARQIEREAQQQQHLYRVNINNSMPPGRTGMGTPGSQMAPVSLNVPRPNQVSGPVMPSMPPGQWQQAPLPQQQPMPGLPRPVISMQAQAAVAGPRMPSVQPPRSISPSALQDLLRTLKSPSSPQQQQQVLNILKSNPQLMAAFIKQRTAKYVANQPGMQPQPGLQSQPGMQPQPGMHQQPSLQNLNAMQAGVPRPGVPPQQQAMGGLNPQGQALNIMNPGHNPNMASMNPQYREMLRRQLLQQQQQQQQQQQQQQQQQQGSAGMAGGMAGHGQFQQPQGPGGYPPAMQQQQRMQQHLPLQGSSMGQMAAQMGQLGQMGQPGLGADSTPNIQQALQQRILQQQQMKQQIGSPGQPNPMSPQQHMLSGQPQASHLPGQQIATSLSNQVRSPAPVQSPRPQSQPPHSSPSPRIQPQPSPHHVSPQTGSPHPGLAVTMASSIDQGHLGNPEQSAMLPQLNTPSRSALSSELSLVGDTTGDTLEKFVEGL

O=C1C(Cc2ccc(O)cc2)N2C(=O)CCN(C(=O)NCc3ccccc3)C2CN1Cc1cccc2ccccc12 (stereo not shown) [COMPOUND 1]
Effect of preincubation with COMPOUND 1 on CBP binding to COMPOUND 2: blocked the binding of CBP
